Results on 15 compounds are retold here after publication PMC9271048, “Probing strigolactone perception mechanisms with rationally designed small-molecule agonists stimulating germination of root parasitic weeds” (Nature Communications, 2022).

As a reminder, the IC50 is the midpoint of a concentration-inhibition curve. By EC50 is commonly meant the concentration giving half of the maximal effect.

Like-named read-outs stand apart in the source and are kept apart here.

For one assay, the system named is P. aegyptiaca seeds. Briefly: P. aegyptiaca seed germination assay. It is filed as in vivo, Phelipanche aegyptiaca. Set-up: P. aegyptiaca germination EC50 values, source data average: unit not given here. The following applies: for P. aegyptiaca germination(%): Supplementary Table 1, compounds tested at 10 μM, means ± SD, n = 3; for EC50: Phelipanche aegyptiaca. The procedure: P. aegyptiaca seeds were harvested from Xinjiang province, China in 2017. The seeds were surface sterilized using 1% NaClO solution for 2 min and then washed with distilled water six times. For seed germination assay, about 20 pieces of glass fiber-filter paper discs (15 mm diameter, Whatman GF/B) were placed separately on two layers of filter papers (9 cm diameter, Whatman) in a Petri dish. Five milliliters of distilled water was added to each Petri dish to wet the papers. Approximately 40–90 sterilized seeds were spread onto each glass fiber-filter paper disc. After the seeds were conditioned in the dark at 25 °C for 4 days[48], glass fiber-filter paper discs were blotted dry on filter papers (9 cm) and transferred to the wells of 24-well cell culture plates. The testing compounds were dissolved in acetone and diluted with H2O (VH2O/Vacetone = 999/1) just before use[49]. rac-GR24 and 1‰ acetone solution were used as positive and negative controls, respectively. One hundred microliters of the test solution was added to each well of the plates, and all treatments were performed in three biological repeats. The plates were sealed and incubated in the dark at 25 °C for a week. The experiments were performed at least three times. The germinated seeds were observed by using an electronic magnifier at ×20 magnification.

Assay [1] addresses T1, ShHTL7 (Striga hermonthica, UniProt A0A0M3PNA2). Kind of assay: biochemical. It is filed as binding. Here is the method:
We used a sensitive, high-throughput Surface plasmon resonance (SPR) method to examine the binding affinities of the 51 candidates to the recombinant ShHTL7 protein, which was immobilized on the CM5 sensor chip. rac-GR24 was used as a positive control.
The interactions of small molecules with recombinant ShHTL7 were evaluated using the Biacore T200 system (GE Healthcare, USA) at 25 °C[47]. The purified ShHTL7 protein was immobilized on a CM5 sensor chip using the standard amine coupling procedure. […] PBS-P (10 mM phosphate buffer, 2.7 mM KCl, 137 mM NaCl, 0.05% Surfactant P20) containing 0.5% DMSO was used as the running buffer. For the screening experiments, candidates with different structures at 50 μM in the running buffer were injected individually at a flow rate of 30 μL min^−1. For binding affinity studies, compounds with different concentrations in running buffer were used. During the experiments, both the contact and dissociation times were set as 1 min. Data analysis was performed using the Biacore Evaluation Software (T200 Version 2.0). The affinity values (KD) were obtained by the kinetics analysis or the steady-state affinity method.

Assay [2] addresses T1, ShHTL7. Briefly: Competitive inhibition of ShHTL7 with Yoshimulactone Green (YLG) as substrate. It is filed as biochemical. Here is the method:
Based on the structural feature of the lead compound 2h, we selected three regions to perform further modification (Supplementary Fig. 6), to try to further improve bioactivity. Insertion of a carbonyl group between the bicyclo[2.2.1]hept-5-en-2-yl group and the piperazine ring was detrimental to binding affinity (Supplementary Fig. 6, region A). Removal of an oxygen atom in region B was found unfavorable to binding affinity as well. Therefore, we focused on modifying the benzene ring (region C) for 2h. A series of compounds with different groups at region C was synthesized (Supplementary Scheme 1). […] As SPR just measures the binding ability, another independent assay by using Yoshimulactone Green (YLG) as the fluorescent substrate was performed to determine the half-maximal inhibitory concentration (IC50) of these compounds against ShHTL7[22].
The excitation and emission wavelengths of YLG are 480 and 520 nm, respectively. We used a fluorescence spectrophotometer (CARY Eclipse) to detect the fluorescence intensity change of YLG during the enzymatic hydrolysis assay process. All the testing compounds and YLG were dissolved in DMSO and prepared as stock solutions just before use. […] The changes of fluorescence at 520 nm of each well were recorded every 1 min for 30 min. Using the reaction mixture without adding enzyme and tested compounds as the background control. After subtracting the background hydrolysis, a linear fluorescence increase in 8 min was used for further inspection. The IC50 values were determined via fitting relative inhibition percentages with the varying concentrations of compounds in Microsoft Excel.

Where [3] appears, read: source data of Fig. 2c and Supplementary Fig. 8b, average of 3.
The mark [4] stands for this setting: Supplementary Table 7, binding affinities between ShHTL7 and agonists by SPR, read-out: KD/μM.
The mark [5] stands for this setting: wild-type ShHTL7, average of 3, source data of Fig. 2a,b, Supplementary Figs. 8a, 9a, 20b, read-out: IC50, competitive ShHTL7 inhibition (YLG), source data average.
Where [6] appears, read: YLG used as the substrate, means ± SD, n = 3, read-out: IC50 (Supplementary Table 1).
[7] abbreviates: IC50 (Supplementary Table 1), YLG used as the substrate, means ± SD, n = 3.

T1 sequence (A0A0M3PNA2 entry or part of it): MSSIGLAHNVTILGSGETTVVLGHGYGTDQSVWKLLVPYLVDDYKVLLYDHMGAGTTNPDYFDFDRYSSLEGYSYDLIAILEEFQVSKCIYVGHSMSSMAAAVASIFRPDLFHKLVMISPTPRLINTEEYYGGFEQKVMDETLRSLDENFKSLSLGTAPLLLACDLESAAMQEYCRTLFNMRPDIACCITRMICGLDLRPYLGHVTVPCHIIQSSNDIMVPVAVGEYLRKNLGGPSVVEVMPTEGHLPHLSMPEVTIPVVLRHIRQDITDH

Take `CC1=CC(OC(=O)N2CCN(C(=O)C(F)(F)Oc3ccc(Br)cc3C)CC2)OC1=O` (stereo not shown) [4f]: in the assay on P. aegyptiaca seeds (setting [3]), the “P. aegyptiaca germination EC50 values, source data average” value (shortened to “P. aegyptiaca germination EC50 values”) stood at 6.406. Moreover, on ShHTL7 [1] (setting [4]), the Kd amounted to 1.96 ± 0.29 µM. The IC50 on ShHTL7 [2] (setting [5]) came out at 4.25 µM.

For `C1=CC2CC1CC2CN1CCNCC1` (stereo not shown) [ZJT1], the “P. aegyptiaca germination(%)” value in the assay with P. aegyptiaca seeds is listed as 1.6%. Also, the IC50 at ShHTL7 [2] (YLG used as the substrate, read-out: IC50 (Supplementary Table 1), symbol) is above 400 µM.

For `CC1=CC(OC(=O)N2CCN(C(=O)COc3ccc(Cl)cc3C)CC2)OC1=O` (stereo not shown) [4e], the “P. aegyptiaca germination EC50 values” value in the assay on P. aegyptiaca seeds (setting [3]) was 8.242. On ShHTL7 [1] (setting [4]), the Kd stood at 6.33 ± 3.1 µM. The half-inhibitory concentration (IC50) at ShHTL7 [2] (setting [5]) came out at 2.35 µM.

`COc1cc(C(=O)N2CCN(CC3CC4C=CC3C4)CC2)cc(OC)c1OC` (stereo not shown) [2c] displayed a Kd at ShHTL7 [1] of 6.66 ± 0.2 µM.

Take `O=C(COc1ccc([N+](=O)[O-])cc1)N1CCN(CC2CC3C=CC2C3)CC1` (stereo not shown) [3p]: the “P. aegyptiaca germination(%)” value in the assay with P. aegyptiaca seeds is listed as 18.6%. In addition, the IC50 on ShHTL7 [2] (setting [6]) worked out at 15.6 ± 0.37 µM.

As to `O=C(COc1ccccc1)N1CCN(CC2CC3C=CC2C3)CC1` (stereo not shown) [3l], the “P. aegyptiaca germination(%)” value in the assay with P. aegyptiaca seeds came to 26.3%. In addition, at ShHTL7 [2] (setting [6]), the IC50 is 18 ± 1.32 µM.

As to `CC1=CC(OC(=O)N2CCN(C(=O)COc3c(F)c(F)c(F)c(F)c3F)CC2)OC1=O` (stereo not shown) [4b], the EC50 with P. aegyptiaca seeds (read-out: EC50, P. aegyptiaca seed germination) was around 55.2 nM; with P. aegyptiaca seeds (source data of Fig. 2c and Supplementary Fig. 8b, average of 3, read-out: P. aegyptiaca germination EC50 values, source data average (converted)), 48.2 nM. This compound showed a Kd at ShHTL7 [1] of 2.21 ± 0.42 µM. The IC50 on ShHTL7 [2] (YLG as substrate, text and Fig. 2, read-out: IC50, competitive ShHTL7 inhibition (YLG assay)) is 3.03 ± 0.58 µM; on ShHTL7 [2] (setting [5]) it was 3.03 µM.

As for `O=C(COc1ccc(Cl)cc1Cl)N1CCN(CC2CC3C=CC2C3)CC1` (stereo not shown) [3j], the “P. aegyptiaca germination(%)” value in the assay with P. aegyptiaca seeds was 54.7%. The IC50 at ShHTL7 [2] (setting [6]) was determined as 9.22 ± 0.35 µM.

As for `Cc1cccc(OCC(=O)N2CCN(CC3CC4C=CC3C4)CC2)c1` (stereo not shown) [2f], the “germination of P. aegyptiaca seeds, source data average” value in the assay on P. aegyptiaca seeds (10 μM, Fig. 1d source data, average of 3) came to 18.7364%. For the same compound, in the assay with P. aegyptiaca seeds, the “P. aegyptiaca germination(%)” value was determined as 20.5%. The compound also showed a Kd at ShHTL7 [1] of 11.2 ± 0.16 µM. At ShHTL7 [2] (setting [7]), the IC50 was 10.7 ± 0.96 µM.

For `O=C(COc1cc(Cl)ccc1Cl)N1CCN(CC2CC3C=CC2C3)CC1` (stereo not shown) [3k], the “P. aegyptiaca germination(%)” value in the assay with P. aegyptiaca seeds amounted to 43.5%. Besides, at ShHTL7 [2] (setting [6]), the IC50 was 32.2 ± 1.99 µM.

As for `Cc1cc(F)ccc1OCC(=O)N1CCN(CC2CC3C=CC2C3)CC1` (stereo not shown) [3d], the “P. aegyptiaca germination(%)” value in the assay with P. aegyptiaca seeds is 23.1%. Moreover, the Kd on ShHTL7 [1] (recombinant ShHTL7 immobilized on CM5 chip, 25 °C, read-out: KD (SPR)) turned out to be 1.86 µM. The IC50 on ShHTL7 [2] (setting [6]) amounted to 10.7 ± 2.93 µM.

With `Cc1ccc(OCC(=O)N2CCN(C(=O)C3CC4C=CC3C4)CC2)cc1` (stereo not shown) [3a], in the assay on P. aegyptiaca seeds, the “P. aegyptiaca germination(%)” value was found to be 19.4%. Further, the IC50 on ShHTL7 [2] (setting [6]) is 35.6 ± 3.84 µM.

As for `O=C(COc1c(F)c(F)c(F)c(F)c1F)N1CCN(CC2CC3C=CC2C3)CC1` (stereo not shown) [3g], the “P. aegyptiaca germination(%)” value with P. aegyptiaca seeds is 5.7%. The Kd on ShHTL7 [1] amounted to 0.47 µM. For the same compound, the IC50 at ShHTL7 [2] (setting [7]) is 0.23 ± 0.03 µM; at ShHTL7 [2] (IC50, competitive ShHTL7 inhibition (YLG), source data average, wild-type ShHTL7, average of 3, source data of Fig. 2a,b, Supplementary Figs. 8a, 9a, 20b), 2.08 µM.

`O=C(COc1ccc([N+](=O)[O-])cc1Cl)N1CCN(CC2CC3C=CC2C3)CC1` (stereo not shown) [3i]: in the assay on P. aegyptiaca seeds, the “P. aegyptiaca germination(%)” value is on record as 33.5%. Further, the IC50 at ShHTL7 [2] (setting [6]) worked out at 11.6 ± 0.61 µM.

For the compound `CCCCOc1ccc(S(=O)(=O)N2CCN(C(=O)OC3C=C(C)C(=O)O3)CC2)cc1` (stereo not shown) [SPL7, reference compound], in the assay on P. aegyptiaca seeds (setting [3]), the “P. aegyptiaca germination EC50 values” value is 7.443. Further, the Kd on ShHTL7 [1] (setting [4]) was found to be 4.81 ± 0.02 µM. The IC50 on ShHTL7 [2] (setting [5]) stood at 4.31 µM.
